Test [1] concerns the target T1, hMC4R (Homo sapiens, UniProt P32245). As to the kind of experiment: Assay A: europium-based competitive binding assay with probe 17. The following applies: over the range of concentrations tested.
The target of test [2] is T1, hMC4R. As to the kind of experiment: Assay B: europium-based competitive binding assay with probe 18. The note with it: over the range of concentrations tested.

Molecules are shown by their SMILES.

T1 sequence (P32245 whole entry): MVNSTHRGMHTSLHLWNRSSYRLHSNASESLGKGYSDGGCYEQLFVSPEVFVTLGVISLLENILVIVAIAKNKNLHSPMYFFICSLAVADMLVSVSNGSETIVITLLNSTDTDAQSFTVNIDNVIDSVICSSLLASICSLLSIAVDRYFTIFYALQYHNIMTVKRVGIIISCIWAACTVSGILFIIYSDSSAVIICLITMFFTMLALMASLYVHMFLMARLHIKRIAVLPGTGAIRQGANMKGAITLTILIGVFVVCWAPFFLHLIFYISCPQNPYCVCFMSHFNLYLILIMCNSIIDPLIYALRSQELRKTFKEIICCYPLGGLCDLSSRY

Consider `CCCCc1cn(CCCCCC(=O)NC(CO)C(N)=O)nn1` (centres unmarked) [Compound 11, N-(1-Amino-3-hydroxy-1-oxopropan-2-yl)-6-(4-butyl-1H-1,2,3-triazol-1-yl)hexanamide], for which the “blocking probe 17 from binding to hMC4R” value in test [1] is reported as “ineffective”. Further, the “blocking probe 18 from binding to hMC4R” value in test [2] was “ineffective”.

These data come from paper PMC2929268 (The Journal of organic chemistry, 2010).
